Experimental data reported in publication PMC9298352, “Design, Synthesis and Structural Analysis of Glucocerebrosidase Imaging Agents” (Chemistry (Weinheim an Der Bergstrasse, Germany), 2021).

Legend:
[1] = target: T1, endogenous GBA in HEK293T cells (Homo sapiens, UniProt P04062); experiment: In situ labeling of GBA in living HEK293T cells (gel-based ABPP); assay type: cell-based; conditions: 1–1000 nM, 24 h, 37 °C
T1 construct: endogenous in cells; host or cells: HEK293T
T1 sequence (P04062 40-536): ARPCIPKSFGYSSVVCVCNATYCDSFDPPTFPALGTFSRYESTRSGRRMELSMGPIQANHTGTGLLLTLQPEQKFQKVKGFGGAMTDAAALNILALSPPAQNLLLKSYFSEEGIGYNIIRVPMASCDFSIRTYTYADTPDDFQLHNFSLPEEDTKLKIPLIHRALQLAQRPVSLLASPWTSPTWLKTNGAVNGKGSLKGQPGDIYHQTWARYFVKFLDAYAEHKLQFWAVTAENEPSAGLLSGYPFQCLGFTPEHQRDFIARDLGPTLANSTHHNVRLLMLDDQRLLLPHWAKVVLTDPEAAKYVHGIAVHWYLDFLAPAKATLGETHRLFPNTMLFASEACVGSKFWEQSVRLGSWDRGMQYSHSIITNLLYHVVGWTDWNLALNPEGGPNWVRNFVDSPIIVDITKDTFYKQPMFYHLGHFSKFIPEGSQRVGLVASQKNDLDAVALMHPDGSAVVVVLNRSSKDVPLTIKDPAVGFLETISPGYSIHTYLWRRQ
Description: (§1) HEK293T cells containing endogenous GBA and overexpressed GBA2 were treated with the ABPs at different concentrations (1–1000 nM) for 24 hr. Cells were then washed, lysed and the fluorescence was visualized by gel‐based ABPP (Figure 8).
(§2) CBB, Coomassie Brilliant Blue staining (bottom panel).
(§3) Labelling of HEK293T cells, containing endogenous GBA and overexpressed GBA2, with ABPs 6, 8 and 9 was conducted based on previously described methods[69] as outlined in the Supporting Information (page 7).
(§4) Cy5 tetrazine 20 (2.83 mg, 4.3 µmol) was added to a solution of norbornene 19 (0.94 mg, 2.38 µmol) in MeOH (4 mL). After stirring overnight at rt, the reaction mixture was concentrated in vacuo and purified by HPLC under neutral conditions (A: 50 mM NH4HCO3 in H2O; B: MeCN; 49% → 52%, A in […]
(§5) Biochemical Methods: General Experimental Details
(§6) Recombinant human GBA (rhGBA, imiglucerase, Cerezyme®) and GAA (rhGAA, alglucosidase alfa, Myozyme) were obtained from Sanofi Genzyme (Cambridge, MA, USA). HEK293T (CRL-3216) cell lines were purchased from ATCC (Manassas, VA, USA). Cell lines were […]
(§7) (1 picture or pasted object on this page, not shown here)

[2] = target: T2, overexpressed GBA2 in HEK293T cells (Homo sapiens, UniProt Q9HCG7); experiment: In situ labeling of GBA2 in living HEK293T cells (gel-based ABPP); assay type: cell-based; conditions: HEK293T cells overexpressing GBA2, 1–1000 nM, 24 h, 37 °C
T2 construct: expressed in transfected cells; host or cells: HEK293T
T2 sequence (Q9HCG7 1-927): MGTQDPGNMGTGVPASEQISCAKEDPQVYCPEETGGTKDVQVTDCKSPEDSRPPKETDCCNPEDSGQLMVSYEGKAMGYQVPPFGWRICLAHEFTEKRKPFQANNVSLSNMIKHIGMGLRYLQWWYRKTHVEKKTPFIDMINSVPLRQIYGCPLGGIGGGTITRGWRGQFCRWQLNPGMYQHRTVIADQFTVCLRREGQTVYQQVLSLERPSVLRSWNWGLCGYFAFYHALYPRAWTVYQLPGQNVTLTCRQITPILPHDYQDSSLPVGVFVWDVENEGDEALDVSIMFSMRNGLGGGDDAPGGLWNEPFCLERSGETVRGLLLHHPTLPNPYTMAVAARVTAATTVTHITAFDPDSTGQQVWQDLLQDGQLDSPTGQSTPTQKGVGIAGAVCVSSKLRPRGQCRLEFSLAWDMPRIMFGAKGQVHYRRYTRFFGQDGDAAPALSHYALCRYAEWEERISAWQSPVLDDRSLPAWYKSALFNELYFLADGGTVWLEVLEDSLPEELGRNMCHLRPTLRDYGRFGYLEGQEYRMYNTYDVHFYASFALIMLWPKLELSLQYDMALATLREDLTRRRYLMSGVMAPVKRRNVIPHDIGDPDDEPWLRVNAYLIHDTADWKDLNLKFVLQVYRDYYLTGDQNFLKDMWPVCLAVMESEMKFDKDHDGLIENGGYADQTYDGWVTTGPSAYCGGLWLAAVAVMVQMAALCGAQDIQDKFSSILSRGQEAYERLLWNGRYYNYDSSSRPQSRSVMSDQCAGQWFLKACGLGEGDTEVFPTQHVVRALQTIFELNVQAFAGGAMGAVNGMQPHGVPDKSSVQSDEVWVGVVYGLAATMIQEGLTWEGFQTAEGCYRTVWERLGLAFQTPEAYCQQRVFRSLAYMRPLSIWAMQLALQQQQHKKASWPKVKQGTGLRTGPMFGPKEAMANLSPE
Description: as §1, §2, §3, §4, §5, §6, §7

CCCCCCCCN1[C@@H]2[C@H](Cn3cc(CNC(=O)CCCCC[N+]4=C(/C=C/C=C/C=C5/N(C)c6ccccc6C5(C)C)C(C)(C)c5ccccc54)nn3)[C@@H](O)[C@H](O)[C@@H](O)[C@@H]21 (some centres unmarked) [ABP 6]
ABP concentration at which in situ labeling of GBA is observed [1]: 10 nM | ABP concentration at which in situ labeling of GBA2 is observed [2]: 100 nM
